Measured values taken from patent publication US11873290B2, “Pyridazinone compounds and uses thereof” (Edgewise Therapeutics, Inc., priority 2018, dated 2024).

target: skeletal myofibrils (myosin ATPase activity); test: Skeletal Myofibril ATPase Assay; assay type: biochemical; conditions: PK-LDH coupled, absorbance at 340 nm
Protocol: Overview: Myosin ATPase activity is assessed by using a coupled reaction system, in which ADP generated by the myosin ATPase function is coupled to the disappearance of NADH through the pyruvate kinase/lactate dehydrogenase (PK-LDH) system. Myosin ATPase activity produces ADP, which is used as a substrate for PK to produce pyruvate and regenerate ATP. The pyruvate is then used as a substrate by LDH to oxidize NADH to NAD+. The rate of the reaction is monitored through the time-dependent disappearance of NADH using absorbance at 340 nm. Inhibition of ATPase activity by the assayed compounds is indicated by a reduced rate of NADH loss, relative to vehicle-treated controls, over the experimental time window. To assess the selectivity of the assayed compounds for skeletal myofibrils, the compounds are counter-screened in cardiac myofibrils.
Materials: The following stock solutions and reagents were used in the Skeletal Myofibril ATPase Assay:
Stock Solutions of pCa buffer. Combine PIPES, CaCl2, and EGTA solutions with 70 mL of water. Adjust pH to 7.0 and bring final volume to 100 mL.
Skeletal Myofibril ATPase Assay Procedure: BSA, ATP, NADH, PEP, and DTT solutions were thawed at room temperature, then transferred to ice. Pellet-frozen myofibrils (approximately twice the required volume) were transferred into a sufficiently large tube and capped. Myofibrils were thawed by rolling in a water bath for approximately 15 min at room temperature and cooled on ice. Buffers A and B were prepared by adjusting volumes as necessary for required number of wells and stored on ice. 0.5 μL of the compounds to be assayed were added into wells of a 384-well plate. Buffers A and B were mixed by inversion immediately prior to use, then 25 μL of each was dispensed using a Multidrop dispenser (Buffer A first, then Buffer B). The absorbance within the wells was measured at 340 nm, using a kinetic protocol in which the wells are read every 1.5-2 min for 1 h. The reaction rate was qualitatively assessed by subtracting the minimum absorbance value from the maximum value for each well, using either the SoftMax Pro plate reader software or a spreadsheet program such as Excel. Using GraphPad Prism 8.0, the data was normalized, with 100% activity defined as the absorbance change in the 1% DMSO vehicle wells and 0% assigned to no change in absorbance over the course of the experiment. The normalized data were fit to a variable-slope four-parameter logistic model, constraining the bottom to be 0 or greater. Compounds of Table 1 to 4 were tested and results of the assay appear in Table 5 herein. A=IC50 is less than or equal to 10 μM; B=IC50 is greater than 10 μM and less than 100 μM; C=IC50 is greater than 100 μM; […].

SMILES	IC50 [µM]
O=c1ccc(-c2cnc(OCC(F)(F)F)nc2)nn1Cc1cncc(Cl)c1 [Compound 1, 2-((5-chloropyridin-3-yl)methyl)-6-(2-(2,2,2-trifluoroethoxy)pyrimidin-5-yl)pyridazine-3(2H)-one]	< 10
O=c1ccc(-c2ccc(OC(F)F)nc2)nn1Cc1cncc(Cl)c1 [Compound 2]	< 10
O=c1ccc(-c2cnc(OCC(F)(F)F)nc2)nn1Cc1cncc(F)c1 [Compound 6, 2-((5-fluoropyridin-3-yl)methyl)-6-(2-(2,2,2-trifluoroethoxy)pyrimidin-5-yl)pyridazine-3(2H)-one]	< 10
O=c1ccc(-c2ccc(OC(F)F)nc2)nn1Cc1cncc(F)c1 [Compound 9]	< 10
O=c1ccc(-c2ccc(OC(F)F)nc2)nn1Cc1cccnc1 [Compound 10]	10 to 100
O=c1ccc(-c2ccc(OC(F)F)nc2)nn1Cc1nnc(-c2ccc(F)cc2)s1 [Compound 17]	< 10
O=c1ccc(-c2ccc(OC(F)F)nc2)nn1Cc1nnc(-c2ccccc2)s1 [Compound 22]	< 10
O=c1ccc(-c2ccc(OC(F)F)nc2)nn1Cc1cn[nH]c1-c1ccccc1 [Compound 23, 6-(6-(difluoromethoxy)pyridin-3-yl)-2-((5-phenyl-1H-pyrazol-4-yl)methyl)pyridazin-3(2H)-one]	> 100
O=c1ccc(-c2ccc(OC(F)F)nc2)nn1Cc1ocnc1-c1ccccc1 [Compound 24, 6-(6-(difluoromethoxy)pyridin-3-yl)-2-((4-phenyloxazol-5-yl)methyl)pyridazin-3(2H)-one]	> 100
O=c1ccc(-c2ccc(OC(F)F)nc2)nn1Cc1[nH]ncc1-c1ccccc1 [Compound 25, 6-(6-(difluoromethoxy)pyridin-3-yl)-2-((4-phenyl-1H-pyrazol-5-yl)methyl) pyridazin-3(2H)-one]	> 100
O=c1ccc(-c2cnc(OCC(F)(F)F)nc2)nn1Cc1cc(C(F)F)no1 [Compound 26, 2-((3-(difluoromethyl)isoxazol-5-yl)methyl)-6-(2-(2,2,2-trifluoroethoxy)pyrimidin-5-yl)pyridazin-3(2H)-one]	< 10
O=c1ccc(-c2cnc(OCC(F)(F)F)nc2)nn1Cc1cc(-c2ccccc2)no1 [Compound 27, 2-((3-phenylisoxazol-5-yl)methyl)-6-(2-(2,2,2-trifluoroethoxy)pyrimidin-5-yl)pyridazin-3(2H)-one]	< 10
CC1CCCN1c1ncc(-c2ccc(=O)n(Cc3cncc(F)c3)n2)cn1 (stereo not drawn) [Compound 28, 2-((5-fluoropyridin-3-yl)methyl)-6-(2-(2-methylpyrrolidin-l-yl)pyrimidin-5-yl)pyridazin-3(2H)-one]	< 10
O=c1ccc(-c2cnc(OCC(F)(F)F)nc2)nn1Cc1cc(-c2ccccn2)no1 [Compound 30, 2-((3-(pyridin-2-yl)isoxazol-5-yl)methyl)-6-(2-(2,2,2-trifluoroethoxy)pyrimidin-5-yl)pyridazin-3(2H)-one]	< 10
O=c1ccc(-c2cnc(OCC(F)(F)F)nc2)nn1Cc1cc(C2CC2)no1 [Compound 31, 2-((3-cyclopropylisoxazol-5-yl)methyl)-6-(2-(2,2,2-trifluoroethoxy)pyrimidin-5-yl)pyridazin-3(2H)-one]	< 10
NC(=O)c1cc(Cn2nc(-c3cnc(OCC(F)(F)F)nc3)ccc2=O)on1 [Compound 32, 5-((6-oxo-3-(2-(2,2,2-trifluoroethoxy)pyrimidin-5-yl)pyridazin-1(6H)-yl)methyl)isoxazole-3-carboxamide]	< 10
CC(=O)c1cc(Cn2nc(-c3cnc(OCC(F)(F)F)nc3)ccc2=O)on1 [Compound 33, 2-((3-acetylisoxazol-5-yl)methyl)-6-(2-(2,2,2-trifluoroethoxy)pyrimidin-5-yl)pyridazin-3(2H)-one]	< 10

SMILES	IC50 [µM]
Cc1cnoc1Cn1nc(-c2cnc(OCC(F)(F)F)nc2)ccc1=O [Compound 34, 2-((4-methylisoxazol-5-yl)methyl)-6-(2-(2,2,2-trifluoroethoxy)pyrimidin-5-yl)pyridazin-3(2H)-one]	< 10
CCOC(=O)c1cc(Cn2nc(-c3cnc(OCC(F)(F)F)nc3)ccc2=O)on1 [Compound 37, ethyl 5-((6-oxo-3-(2-(2,2,2-trifluoroethoxy)pyrimidin-5-yl)pyridazin-1(6H)-yl)methyl) isoxazole-3-carboxylate]	< 10
O=c1ccc(-c2cnc(OCC(F)(F)F)nc2)nn1Cc1nnc(-c2ccccn2)s1 [Compound 38, 2-((5-(pyridin-2-yl)-1,3,4-thiadiazol-2-yl)methyl)-6-(2-(2,2,2-trifluoroethoxy)pyrimidin-5-yl)pyridazin-3(2H)-one]	< 10
Cc1c(-c2ccccc2)noc1Cn1nc(-c2cnc(OCC(F)(F)F)nc2)ccc1=O [Compound 39, 2-((4-methyl-3-phenylisoxazol-5-yl)methyl)-6-(2-(2,2,2-trifluoroethoxy)pyrimidin-5-yl)pyridazin-3(2H)-one]	< 10
O=c1ccc(-c2cnc(OCC(F)(F)F)nc2)nn1Cc1nnc(-c2cccnc2)s1 [Compound 40, 2-((5-(pyridin-3-yl)-1,3,4-thiadiazol-2-yl)methyl)-6-(2-(2,2,2-trifluoroethoxy)pyrimidin-5-yl)pyridazin-3(2H)-one]	< 10
Cc1ccc(Cn2nc(-c3cnc(OCC(F)(F)F)nc3)ccc2=O)nn1 [Compound 41, 2-((6-methylpyridazin-3-yl)methyl)-6-(2-(2,2,2-trifluoroethoxy)pyrimidin-5-yl)pyridazin-3(2H)-one]	< 10
O=c1ccc(-c2cnc(OCC(F)(F)F)nc2)nn1Cc1ccnc(O)c1 [Compound 42, 2-((2-hydroxypyridin-4-yl)methyl)-6-(2-(2,2,2-trifluoroethoxy)pyrimidin-5-yl)pyridazin-3(2H)-one]	10 to 100
O=c1ccc(-c2cnc(OCC(F)(F)F)nc2)nn1Cc1cc(CO)no1 [Compound 43, 2-((3-(hydroxymethyl)isoxazol-5-yl)methyl)-6-(2-(2,2,2-trifluoroethoxy)pyrimidin-5-yl)pyridazin-3(2H)-one]	10 to 100
O=c1ccc(-c2cnc(OCC(F)(F)F)nc2)nn1Cc1nnc(-c2ccnc(O)c2)s1 [Compound 44, 2-((5-(2-hydroxypyridin-4-yl)-1,3,4-thiadiazol-2-yl)methyl)-6-(2-(2,2,2-trifluoroethoxy)pyrimidin-5-yl)pyridazin-3(2H)-one]	10 to 100
O=c1ccc(-c2cnc(OCC(F)(F)F)nc2)nn1Cc1nnc(-c2ccc(O)nc2)s1 [Compound 45, 2-((5-(6-hydroxypyridin-3-yl)-1,3,4-thiadiazol-2-yl)methyl)-6-(2-(2,2,2-trifluoroethoxy)pyrimidi-5-yl)pyridazin-3(2H)-one]	10 to 100
O=c1ccc(-c2cnc(OCC(F)(F)F)nc2)nn1Cc1cccc(O)n1 [Compound 46, 2-((6-hydroxypyridin-2-yl)methyl)-6-(2-(2,2,2-trifluoroethoxy)pyrimidin-5-yl)pyridazin-3(2H)-one]	> 100
O=c1ccc(-c2cnc(OCC(F)(F)F)nc2)nn1Cc1cccnc1O [Compound 47, 2-((2-hydroxypyridin-3-yl)methyl)-6-(2-(2,2,2-trifluoroethoxy)pyrimidin-5-yl)pyridazin-3(2H)-one]	> 100
Cc1noc(Cn2nc(-c3cnc(OCC(F)(F)F)nc3)ccc2=O)c1C [Compound 49, 2-((3,4-dimethylisoxazol-5-yl)methyl)-6-(2-(2,2,2-trifluoroethoxy)pyrimidin-5-yl)pyridazin-3(2H)-one]	> 100
CN(CC(F)(F)F)c1ncc(-c2ccc(=O)n(Cc3cncc(F)c3)n2)cn1 [Compound 50, 2-((5-fluoropyridin-3-yl)methyl)-6-(2-(methyl(2,2,2-trifluoroethyl)amino)pyrimidin-5-yl)pyridazin-3(2H)-one]	< 10
N#Cc1cncc(Cn2nc(-c3cnc(OCC(F)(F)F)nc3)ccc2=O)c1 [Compound 51, 5-((6-oxo-3-(2-(2,2,2-trifluoroethoxy)pyrimidin-5-yl)pyridazin-1(6H)-yl)methyl)nicotinonitrile]	< 10
Cc1ncc(Cn2nc(-c3cnc(OCC(F)(F)F)nc3)ccc2=O)cc1F [Compound 52, 2-((5-fluoro-6-methylpyridin-3-yl)methyl)-6-(2-(2,2,2-trifluoroethoxy)pyrimidin-5-yl)pyridazin-3(2H)-one]	< 10
O=c1ccc(-c2cnc(OCC(F)(F)F)nc2)nn1Cc1cnco1 [Compound 53, 2-(oxazol-5-ylmethyl)-6-(2-(2,2,2,- trifluoroethoxy)pyrimidin-5-yl)pyridazin-3(2H)-one]	< 10
